In one assay the test system is Lactobacilli. The conditions noted are these: butanol concentration of 2.5 w/v%. The protocol:
(§1) MRS medium oxoid (CM0359, Merck KgaA, Germany) was prepared according to manufacturer's instructions and filled out in 50 ml Schott flasks and sterilized at 121 degrees C during 15 minutes. 1 vial of thawed frozen culture was inoculated to 50 ml of this medium and the cultures were subsequently incubated overnight at 30 degrees C standing still or during 2 nights if no clear growth (whitening) had occurred yet. 20 microliter of this culture was inoculated to 180 microliter of microtiter plate (MTP) medium. The pH of this medium was approximately 6.0.
(§2) After inoculation, every 20 minutes the optical density at 620 nm was measured in the wells of the microtiter plate using a Multiscan Ascent photometer (Thermo Fisher Scientific, Inc.), while the temperature was controlled at 30 degrees C. Total time of measurement was maximally 24 hours. Before measurements were taken, the microtiter plates were shaken for 30 seconds to homogenize any settled biomass.
(§3) The growth rate was calculated using the exponential phase of the growth curve, based on the optical density measurement. The relative growth rate was calculated using the reference at 0 g/L as 1.00. […] Table 3 Relative growth rate
(§4) IC50(%) values were determined for the Lactobacilli at 30 degrees C by using a polynomial second order fit through the relative growth rate data and are presented in Table 4. […]

Assay [1] has as its system L. casei from commercial rennet. The note with it: 30 degrees C; for Relative growth rate: reference at 0 g/L = 1.00. The method, then: as §1, §2, §3, §4
For assay [2], the system named is L. fructivorans ATCC 8288. The note with it: 30 degrees C; for Relative growth rate: reference at 0 g/L = 1.00. The protocol:
as §1, §2, §3, §4

The next assay concerns L. plantarum ATCC 8014. The note with it: 30 degrees C; for Relative growth rate: reference at 0 g/L = 1.00. The method, then: as §1, §2, §3, §4
The subject of a further assay is L. casei ADRIA 85 L121. The note with it: 30 degrees C; for Relative growth rate: reference at 0 g/L = 1.00. The protocol: as §1, §2, §3, §4
[3] abbreviates: polynomial second order fit through the relative growth rate data.

Where two headings read alike, the source gives them in different places.

On to butanol, for which the “growth in presence of butanol” value in the assay with Lactobacilli is given as “can still grow”. Also, the IC50% came to 1.9 w/v % in assay [1] (setting [3]), 2.1 w/v % in assay [2] (setting [3]), 2.2 w/v % in the assay on L. plantarum ATCC 8014 (setting [3]) and 2.0 w/v % with L. casei ADRIA 85 L121 (setting [3]). For the same substance, the Relative growth rate in assay [1] (Butanol concentration 0.5 w/v%) was found to be 0.88; in assay [1] (Butanol concentration 1 w/v%), 0.79; in assay [1] (Butanol concentration 1.5 w/v%) it was 0.68; in assay [1] (Butanol concentration 2.5 w/v%) it was 0.24; in assay [2] (Butanol concentration 0.5 w/v%), 0.94; in assay [2] (Butanol concentration 1 w/v%) it was 0.89. Further, the Relative growth rate in assay [2] (Butanol concentration 1.5 w/v%) stood at 0.78; in assay [2] (Butanol concentration 2.5 w/v%), 0.28; in the assay with L. plantarum ATCC 8014 (Butanol concentration 0.5 w/v%), 0.97; with L. plantarum ATCC 8014 (Butanol concentration 1 w/v%), 0.90; in the assay with L. plantarum ATCC 8014 (Butanol concentration 1.5 w/v%), 0.77; in the assay on L. plantarum ATCC 8014 (Butanol concentration 2.5 w/v%), 0.37. For the same substance, the Relative growth rate amounted to 0.96 with L. casei ADRIA 85 L121 (Butanol concentration 0.5 w/v%), 0.89 with L. casei ADRIA 85 L121 (Butanol concentration 1 w/v%), 0.73 in the assay with L. casei ADRIA 85 L121 (Butanol concentration 1.5 w/v%) and 0.21 in the assay with L. casei ADRIA 85 L121 (Butanol concentration 2.5 w/v%).

For the origin of these results see patent publication EP2072621A1, “Solvent tolerant microorganisms” (DSM IP Assets B.V., priority 2007, dated 2009).
